Measured values reported in PubChem BioAssay (NCI).
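Method: 48-hour compound exposure of cells in 96-well plates, five concentrations, linear interpolation of endpoints. Abbreviation: GI50, concentration required for 50% inhibition of growth. The concentration for full growth arrest is given as TGI.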

Legend:
Assay in all cases: NCI tumour cell line growth inhibition, 48 h
T-47D breast = system: T-47D breast
SW-620 colon = system: SW-620 colon
PC-3 prostate = system: PC-3 prostate
RXF 393 renal = system: RXF 393 renal
MALME-3M melanoma = system: MALME-3M melanoma
CCRF-CEM leukemia = system: CCRF-CEM leukemia
MDA-MB-231 breast = system: MDA-MB-231 breast
SK-MEL-2 melanoma = system: SK-MEL-2 melanoma
786-0 renal = system: 786-0 renal
NCI-H522 lung = system: NCI-H522 lung
UACC-257 melanoma = system: UACC-257 melanoma
OVCAR-8 ovarian = system: OVCAR-8 ovarian
SN12C renal = system: SN12C renal
KM12 colon = system: KM12 colon
MCF7 breast = system: MCF7 breast
COLO 205 colon = system: COLO 205 colon
U251 CNS = system: U251 CNS
MDA-MB-435 = system: MDA-MB-435
SNB-19 CNS = system: SNB-19 CNS
SK-MEL-5 melanoma = system: SK-MEL-5 melanoma
UACC-62 melanoma = system: UACC-62 melanoma
NCI-H226 lung = system: NCI-H226 lung
K-562 leukemia = system: K-562 leukemia
LOX IMVI melanoma = system: LOX IMVI melanoma
HCT-15 colon = system: HCT-15 colon
HOP-92 NSCLC = system: HOP-92 NSCLC
M14 melanoma = system: M14 melanoma
ACHN renal = system: ACHN renal
A498 renal = system: A498 renal
OVCAR-3 ovarian = system: OVCAR-3 ovarian
HOP-62 NSCLC = system: HOP-62 NSCLC
OVCAR-4 ovarian = system: OVCAR-4 ovarian
NCI/ADR-RES ovarian = system: NCI/ADR-RES ovarian
DU-145 prostate = system: DU-145 prostate
SF-539 CNS = system: SF-539 CNS
TK-10 renal = system: TK-10 renal
SNB-75 CNS = system: SNB-75 CNS
UO-31 renal = system: UO-31 renal
NCI-H460 lung = system: NCI-H460 lung
IGROV1 ovarian = system: IGROV1 ovarian
SK-OV-3 ovarian = system: SK-OV-3 ovarian
RPMI-8226 leukemia = system: RPMI-8226 leukemia
HCT-116 colon = system: HCT-116 colon
HT29 colon = system: HT29 colon
CAKI-1 renal = system: CAKI-1 renal
SR leukemia = system: SR leukemia
A549 NSCLC = system: A549 NSCLC
NCI-H23 lung = system: NCI-H23 lung
HS 578T breast = system: HS 578T breast
HCC-2998 colon = system: HCC-2998 colon
HL-60(TB) leukemia = system: HL-60(TB) leukemia
OVCAR-5 ovarian = system: OVCAR-5 ovarian
SF-268 CNS = system: SF-268 CNS
MOLT-4 leukemia = system: MOLT-4 leukemia
SK-MEL-28 melanoma = system: SK-MEL-28 melanoma
BT-549 breast = system: BT-549 breast
SF-295 CNS = system: SF-295 CNS
EKVX NSCLC = system: EKVX NSCLC

CN1CCN(Cc2ccc(NC(=O)c3cncc(C#Cc4cnc5ccc(N6CCN(C)CC6)nn45)c3)cc2C(F)(F)F)CC1
GI50 (T-47D breast): 18 µM | TGI (T-47D breast): 41.8 µM | GI50 (SW-620 colon): 2.12 µM | TGI (SW-620 colon): 6.99 µM | GI50 (PC-3 prostate): 1.66 µM | TGI (PC-3 prostate): 5.1 µM | GI50 (RXF 393 renal): 0.786 µM | TGI (RXF 393 renal): 2.08 µM | GI50 (MALME-3M melanoma): 2.57 µM | TGI (MALME-3M melanoma): 11.2 µM | GI50 (CCRF-CEM leukemia): 1.94 µM | TGI (CCRF-CEM leukemia): 6.47 µM | GI50 (MDA-MB-231 breast): 0.751 µM | TGI (MDA-MB-231 breast): 2.35 µM | GI50 (SK-MEL-2 melanoma): 10.7 µM | TGI (SK-MEL-2 melanoma): 23.3 µM | GI50 (786-0 renal): 1.55 µM | TGI (786-0 renal): 3.11 µM | GI50 (NCI-H522 lung): 1.44 µM | TGI (NCI-H522 lung): 2.96 µM | GI50 (UACC-257 melanoma): 4.98 µM | TGI (UACC-257 melanoma): 18.8 µM | GI50 (OVCAR-8 ovarian): 1.76 µM | TGI (OVCAR-8 ovarian): 3.63 µM | GI50 (SN12C renal): 1.15 µM | TGI (SN12C renal): 2.56 µM | GI50 (KM12 colon): 0.0292 µM | TGI (KM12 colon): 1.39 µM | GI50 (MCF7 breast): 0.835 µM | TGI (MCF7 breast): 2.4 µM | GI50 (COLO 205 colon): 1.58 µM | TGI (COLO 205 colon): 3.63 µM | GI50 (U251 CNS): 1.66 µM | TGI (U251 CNS): 3.32 µM | GI50 (MDA-MB-435): 1.41 µM | TGI (MDA-MB-435): 3.06 µM | GI50 (SNB-19 CNS): 2.29 µM | TGI (SNB-19 CNS): 4.63 µM | GI50 (SK-MEL-5 melanoma): 1.53 µM | TGI (SK-MEL-5 melanoma): 2.91 µM | GI50 (UACC-62 melanoma): 14.5 µM | TGI (UACC-62 melanoma): 27.8 µM | GI50 (NCI-H226 lung): 0.436 µM | TGI (NCI-H226 lung): 10.7 µM | GI50 (K-562 leukemia): 0.0576 µM | TGI (K-562 leukemia): 1.63 µM | GI50 (LOX IMVI melanoma): 1.16 µM | TGI (LOX IMVI melanoma): 2.42 µM | GI50 (HCT-15 colon): 1.43 µM | TGI (HCT-15 colon): 3.37 µM | GI50 (HOP-92 NSCLC): 1.34 µM | TGI (HOP-92 NSCLC): 8.48 µM | GI50 (M14 melanoma): 1.58 µM | TGI (M14 melanoma): 3.24 µM | GI50 (ACHN renal): 1.33 µM | TGI (ACHN renal): 2.62 µM | GI50 (A498 renal): 2.13 µM | TGI (A498 renal): 3.61 µM | GI50 (OVCAR-3 ovarian): 2.15 µM | TGI (OVCAR-3 ovarian): 4.11 µM | GI50 (HOP-62 NSCLC): 2.06 µM | TGI (HOP-62 NSCLC): 7.02 µM | GI50 (OVCAR-4 ovarian): 1.23 µM | TGI (OVCAR-4 ovarian): 3.01 µM | GI50 (NCI/ADR-RES ovarian): 1.81 µM | TGI (NCI/ADR-RES ovarian): 3.64 µM | GI50 (DU-145 prostate): 1.59 µM | TGI (DU-145 prostate): 2.94 µM | GI50 (SF-539 CNS): 0.414 µM | TGI (SF-539 CNS): 1.74 µM | GI50 (TK-10 renal): 2.06 µM | TGI (TK-10 renal): 4.29 µM | GI50 (SNB-75 CNS): 1.49 µM | TGI (SNB-75 CNS): 2.95 µM | GI50 (UO-31 renal): 3.75 µM | TGI (UO-31 renal): 14.5 µM | GI50 (NCI-H460 lung): 1.87 µM | TGI (NCI-H460 lung): 4.05 µM | GI50 (IGROV1 ovarian): 1.75 µM | TGI (IGROV1 ovarian): 4.16 µM | GI50 (SK-OV-3 ovarian): 15 µM | TGI (SK-OV-3 ovarian): 30.7 µM | GI50 (RPMI-8226 leukemia): 2.05 µM | TGI (RPMI-8226 leukemia): 7.41 µM | GI50 (HCT-116 colon): 1.05 µM | TGI (HCT-116 colon): 2.62 µM | GI50 (HT29 colon): 1.18 µM | TGI (HT29 colon): 3.43 µM | GI50 (CAKI-1 renal): 1.67 µM | TGI (CAKI-1 renal): 3.28 µM | GI50 (SR leukemia): 0.781 µM | TGI (SR leukemia): 2.92 µM | GI50 (A549 NSCLC): 1.62 µM | TGI (A549 NSCLC): 3.91 µM | GI50 (NCI-H23 lung): 1.37 µM | TGI (NCI-H23 lung): 2.96 µM | GI50 (HS 578T breast): 1.71 µM | TGI (HS 578T breast): 6.57 µM | GI50 (HCC-2998 colon): 1.64 µM | TGI (HCC-2998 colon): 3.05 µM | GI50 (HL-60(TB) leukemia): 2.18 µM | TGI (HL-60(TB) leukemia): 4.11 µM | GI50 (OVCAR-5 ovarian): 1.83 µM | TGI (OVCAR-5 ovarian): 4.22 µM | GI50 (SF-268 CNS): 1.53 µM | TGI (SF-268 CNS): 3.2 µM | GI50 (MOLT-4 leukemia): 1.33 µM | TGI (MOLT-4 leukemia): 3.51 µM | GI50 (SK-MEL-28 melanoma): 11.9 µM | TGI (SK-MEL-28 melanoma): 24.4 µM | GI50 (BT-549 breast): 1.44 µM | TGI (BT-549 breast): 2.88 µM | GI50 (SF-295 CNS): 1.47 µM | TGI (SF-295 CNS): 2.98 µM | GI50 (EKVX NSCLC): 1.3 µM | TGI (EKVX NSCLC): 2.84 µM
